From patent publication US20250099474A1 (priority 2022, published 2025)

System: SARS-CoV-2
Assay: Phase 2/3 study, Phase 2b Part: score of 12 COVID-19 symptoms per unit time
Assay type: in vivo, human
Conditions: for Change from baseline up to 120 hours in total score of 12 COVID-19 symptoms per unit time: Adjusted mean value by covariance analysis (standard error) / Change from baseline up to 120 hours in total score of 12 COVID-19 symptoms per unit time: Difference of adjusted mean value from that of placebo group (standard error) / Change from baseline up to 120 hours in total score of 12 COVID-19 symptoms per unit time: Maximum value / Change from baseline up to 120 hours in total score of 12 COVID-19 symptoms per unit time: Mean value / Change from baseline up to 120 hours in total score of 12 COVID-19 symptoms per unit time: Median value / Change from baseline up to 120 hours in total score of 12 COVID-19 symptoms per unit time: Minimum value: mild/moderate patients, ITT1 population
Description: The primary endpoints of Phase 2b Part were the time-weighted average change in the total score of 12 COVID-19 symptoms per unit time from the start of the first administration (Day 1) to 120 hours (Day 6), and the change from baseline in SARS-CoV-2 virus titer on Day 4, in mild/moderate SARS-CoV-2-infected patients, and the clinical improvement and the antiviral effect of the active drug were confirmed.
The administration of the active drug is repeated oral administration once a day for 5 days. The 375/125 mg group received 375 mg on Day 1 as a loading dose and 125 mg on Days 2 to 5 as a maintenance dose. The 750/250 mg group received 750 mg on Day 1 as a loading dose and 250 mg on Days 2 to 5 as a maintenance dose.
The primary efficacy endpoints of Phase 2b Part for mild/moderate SARS-CoV-2-infected patients were the time-weighted average change in the total score of 12 COVID-19 symptoms per unit time from the start of the first administration (Day 1) to 120 hours (Day 6), and the change from baseline in SARS-CoV-2 virus titer on Day 4. The total score of 12 COVID-19 symptoms is the sum of the scores determined by evaluation in four grades (0: none, 1: mild, 2: moderate, 3: severe) in the subject daily records for each of the 12 COVID-19 symptoms (low energy and tiredness, muscle or body aches, headache, chills or shivering, feeling hot or feverish, stuffy and runny nose, sore throat, cough, shortness of breath (difficulty breathing), nausea, vomiting, diarrhea).
Pairwise comparison was performed between each active drug dose group and the placebo group. […] Pairwise comparison was performed between each active drug dose group and the placebo group.
The results of classifying the twelve COVID-19 symptoms shown in the above (2-a) into 5 types (acute symptoms, major clinical symptoms, respiratory symptoms, systemic symptoms, and gastrointestinal symptoms) and analyzing the same (ITT population) are shown in the following table. • Acute symptoms: sore throat, cough, feeling hot and feverish • Major clinical symptoms: stuffy and runny nose, sore throat, cough, chills or shivering, feeling hot or feverish • Respiratory symptoms: stuffy and runny nose, sore throat, cough, shortness of breath (difficulty breathing) • Systemic symptoms: low energy and tiredness, muscle or body aches, headache, chills or shivering, feeling hot or feverish • Gastrointestinal symptoms: nausea, vomiting, diarrhea

[1] = ITT population, 375/125 mg group
[2] = ITT population, 750/250 mg group

**Q.** For `Cn1cnc(Cn2c(=O)[nH]/c(=N\c3cc4cn(C)nc4cc3Cl)n(Cc3cc(F)c(F)cc3F)c2=O)n1` [(6E)-6-[(6-chloro-2-methyl-2H-indazol-5-yl)imino]-3-[(1-methyl-1H-1,2,4-triazol-3-yl)methyl]-1-[(2,4,5-trifluorophenyl)methyl]-1,3,5-triazinane-2,4-dione], which “Change from baseline up to 120 hours in sub-total score per unit time, systemic symptoms: Difference of adjusted mean value from that of placebo group (standard error)” value [1] is on record?
**A.** 0.15 (0.18)

**Q.** And the “Change from baseline up to 120 hours in sub-total score per unit time, systemic symptoms: Maximum value” [1]?
**A.** 1.80

**Q.** What about the “Change from baseline up to 120 hours in sub-total score per unit time, systemic symptoms: Mean value” [1] of the same compound?
**A.** −3.71

**Q.** And the “Change from baseline up to 120 hours in sub-total score per unit time, systemic symptoms: Median value” [1]?
**A.** −3.18

**Q.** And the “Change from baseline up to 120 hours in sub-total score per unit time, systemic symptoms: Minimum value” [1]?
**A.** −14.30

**Q.** What about the “Change from baseline up to 120 hours in sub-total score per unit time, acute symptoms: Adjusted mean value by covariance analysis (standard error)” value [2] of the same compound?
**A.** −2.50 (0.10)

**Q.** And the “Change from baseline up to 120 hours in sub-total score per unit time, acute symptoms: Difference of adjusted mean value from that of placebo group (standard error)” value [2]?
**A.** −0.33 (0.12)

**Q.** What about the “Change from baseline up to 120 hours in sub-total score per unit time, acute symptoms: Maximum value” [2] of the same compound?
**A.** 0.52

**Q.** And the “Change from baseline up to 120 hours in sub-total score per unit time, acute symptoms: Mean value” [2]?
**A.** −2.63

**Q.** What about the “Change from baseline up to 120 hours in sub-total score per unit time, acute symptoms: Median value” [2] of the same compound?
**A.** −2.71

**Q.** And the “Change from baseline up to 120 hours in sub-total score per unit time, acute symptoms: Minimum value” [2]?
**A.** −6.93

**Q.** What about the “Change from baseline up to 120 hours in sub-total score per unit time, gastrointestinal symptoms: Adjusted mean value by covariance analysis (standard error)” value [2] of the same compound?
**A.** −1.08 (0.14)

**Q.** And the “Change from baseline up to 120 hours in sub-total score per unit time, gastrointestinal symptoms: Difference of adjusted mean value from that of placebo group (standard error)” value [2]?
**A.** 0.25 (0.18)

**Q.** What about the “Change from baseline up to 120 hours in sub-total score per unit time, gastrointestinal symptoms: Maximum value” [2] of the same compound?
**A.** 0.50

**Q.** And the “Change from baseline up to 120 hours in sub-total score per unit time, gastrointestinal symptoms: Mean value” [2]?
**A.** −1.13

**Q.** What about the “Change from baseline up to 120 hours in sub-total score per unit time, gastrointestinal symptoms: Median value” [2] of the same compound?
**A.** −0.79

**Q.** What about the “Change from baseline up to 120 hours in sub-total score per unit time, gastrointestinal symptoms: Minimum value” [2] of the same compound?
**A.** −5.78

**Q.** What about the “Change from baseline up to 120 hours in sub-total score per unit time, major clinical symptoms: Adjusted mean value by covariance analysis (standard error)” value [2] of the same compound?
**A.** −3.42 (0.14)

**Q.** What about the “Change from baseline up to 120 hours in sub-total score per unit time, major clinical symptoms: Difference of adjusted mean value from that of placebo group (standard error)” value [2] of the same compound?
**A.** −0.42 (0.17)

**Q.** And the “Change from baseline up to 120 hours in sub-total score per unit time, major clinical symptoms: Maximum value” [2]?
**A.** 0.39

**Q.** And the “Change from baseline up to 120 hours in sub-total score per unit time, major clinical symptoms: Mean value” [2]?
**A.** −3.54

**Q.** What about the “Change from baseline up to 120 hours in sub-total score per unit time, major clinical symptoms: Median value” [2] of the same compound?
**A.** −3.42

**Q.** What about the “Change from baseline up to 120 hours in sub-total score per unit time, major clinical symptoms: Minimum value” [2] of the same compound?
**A.** −10.11

**Q.** What about the “Change from baseline up to 120 hours in sub-total score per unit time, respiratory symptoms: Adjusted mean value by covariance analysis (standard error)” value [2] of the same compound?
**A.** −2.16 (0.12)

**Q.** What about the “Change from baseline up to 120 hours in sub-total score per unit time, respiratory symptoms: Difference of adjusted mean value from that of placebo group (standard error)” value [2] of the same compound?
**A.** −0.44 (0.15)

**Q.** And the “Change from baseline up to 120 hours in sub-total score per unit time, respiratory symptoms: Maximum value” [2]?
**A.** 2.29

**Q.** What about the “Change from baseline up to 120 hours in sub-total score per unit time, respiratory symptoms: Mean value” [2] of the same compound?
**A.** −2.33

**Q.** And the “Change from baseline up to 120 hours in sub-total score per unit time, respiratory symptoms: Median value” [2]?
**A.** −2.30

**Q.** What about the “Change from baseline up to 120 hours in sub-total score per unit time, respiratory symptoms: Minimum value” [2] of the same compound?
**A.** −6.34

**Q.** And the “Change from baseline up to 120 hours in sub-total score per unit time, systemic symptoms: Adjusted mean value by covariance analysis (standard error)” value [2]?
**A.** −3.16 (0.14)

**Q.** And the “Change from baseline up to 120 hours in sub-total score per unit time, systemic symptoms: Difference of adjusted mean value from that of placebo group (standard error)” value [2]?
**A.** 0.30 (0.17)

**Q.** And the “Change from baseline up to 120 hours in sub-total score per unit time, systemic symptoms: Maximum value” [2]?
**A.** 2.71

**Q.** What about the “Change from baseline up to 120 hours in sub-total score per unit time, systemic symptoms: Mean value” [2] of the same compound?
**A.** −3.19

**Q.** And the “Change from baseline up to 120 hours in sub-total score per unit time, systemic symptoms: Median value” [2]?
**A.** −2.81

**Q.** And the “Change from baseline up to 120 hours in sub-total score per unit time, systemic symptoms: Minimum value” [2]?
**A.** −9.66

**Q.** And the “Change from baseline up to 120 hours in total score of 12 COVID-19 symptoms per unit time: Adjusted mean value by covariance analysis (standard error)” value (375/125 mg group)?
**A.** −5.37 (0.24)

**Q.** What about the “Change from baseline up to 120 hours in total score of 12 COVID-19 symptoms per unit time: Difference of adjusted mean value from that of placebo group (standard error)” value (375/125 mg group) of the same compound?
**A.** −0.24 (0.30)

**Q.** And the “Change from baseline up to 120 hours in total score of 12 COVID-19 symptoms per unit time: Maximum value” (375/125 mg group)?
**A.** 2.43

**Q.** What about the “Change from baseline up to 120 hours in total score of 12 COVID-19 symptoms per unit time: Mean value” (375/125 mg group) of the same compound?
**A.** −5.95

**Q.** What about the “Change from baseline up to 120 hours in total score of 12 COVID-19 symptoms per unit time: Median value” (375/125 mg group) of the same compound?
**A.** −5.40

**Q.** What about the “Change from baseline up to 120 hours in total score of 12 COVID-19 symptoms per unit time: Minimum value” (375/125 mg group) of the same compound?
**A.** −20.37

**Q.** And the “Change from baseline up to 120 hours in total score of 12 COVID-19 symptoms per unit time: Adjusted mean value by covariance analysis (standard error)” value (750/250 mg group)?
**A.** −5.17 (0.23)

**Q.** And the “Change from baseline up to 120 hours in total score of 12 COVID-19 symptoms per unit time: Difference of adjusted mean value from that of placebo group (standard error)” value (750/250 mg group)?
**A.** −0.04 (0.29)

**Q.** And the “Change from baseline up to 120 hours in total score of 12 COVID-19 symptoms per unit time: Maximum value” (750/250 mg group)?
**A.** 2.47

**Q.** What about the “Change from baseline up to 120 hours in total score of 12 COVID-19 symptoms per unit time: Mean value” (750/250 mg group) of the same compound?
**A.** −5.42

**Q.** What about the “Change from baseline up to 120 hours in total score of 12 COVID-19 symptoms per unit time: Median value” (750/250 mg group) of the same compound?
**A.** −4.92

**Q.** What about the “Change from baseline up to 120 hours in total score of 12 COVID-19 symptoms per unit time: Minimum value” (750/250 mg group) of the same compound?
**A.** −18.16
